Measurements published in patent US8530493B2, “Indolopyridines as Eg5 kinesin modulators” (4SC AG, priority 2006, dated 2013).

These compounds were tested on RKO p21 uninduced (proliferating) colon adenocarcinoma cells (assay: Alamar Blue cell viability assay, RKO p21 uninduced (proliferating)). Details: Homo sapiens, Table B3, anti-proliferative/cytotoxic activity, 72 hours, read-out: −log EC50 RKO p21 uninduced (proliferating) (converted).
Format: cell-based
Summary of the method: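 RKO p21 or p27 subclones grown without Ponasterone A, i.e. proliferating, exposed 24 h after seeding to semi-log compound dilutions in DMEM/10% FCS (1% DMSO controls) for 72 h at 37° C. Alamar Blue fluorescence (544/590 nm) read relative to untreated cells; EC50 from dose-response curves, given as −log EC50 (mol/l).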
`CC(C)CNCCN1C(=O)N2[C@H](c3cccc(O)c3)c3[nH]c4ccc(OC(F)F)cc4c3C[C@@]2(C)C1=O` (racemic) [Example 269, (3aSR,10RS)-6-(1,1-Difluoro-methoxy)-10-(3-hydroxy-phenyl)-2-(2-isobutylamino-ethyl)-3a-methyl-3a,4,9,10-tetrahydro-2,9,10a-triaza-cyclopenta[b]fluorene-1,3-dione] was tested, and the EC50 was ≤ 39.8 nM. For `COc1cc2c3c([nH]c2cc1F)[C@@H](c1cccc(O)c1)N1C(=O)N(CCCN2CCOCC2)C(=O)[C@]1(C)C3` (racemic) [Example 321, (3aSR,10RS)-7-Fluoro-10-(3-hydroxy-phenyl)-6-methoxy-3a-methyl-2-(3-morpholin-4-yl-propyl)-3a,4,9,10-tetrahydro-2,9,10a-triaza-cyclopenta[b]fluorene-1,3-dione], the EC50 was 39.8 to 251 nM. With `COc1ccc2[nH]c3c(c2c1)C[C@@]1(C)C(=O)N(CCCNC2CC2)C(=O)N1[C@@H]3c1cccc(O)c1` [Example 537, (3aS,10R)-2-(3-Cyclopropylamino-propyl)-10-(3-hydroxy-phenyl)-6-methoxy-3a-methyl-3a,4,9,10-tetrahydro-2,9,10a-triaza-cyclopenta[b]fluorene-1,3-dione] the EC50 was ≤ 39.8 nM. `CCN(CCO)CCCN1C(=O)N2[C@H](c3cccc(O)c3)c3[nH]c4cc(F)c(Cl)cc4c3C[C@@]2(C)C1=O` (racemic) [Example 470, (3aSR,10RS)-6-Chloro-2-{3-[ethyl-(2-hydroxy-ethyl)-amino]-propyl}-7-fluoro-10-(3-hydroxy-phenyl)-3a-methyl-3a,4,9,10-tetrahydro-2,9,10a-triaza-cyclopenta[b]fluorene-1,3-dione] was tested, and the EC50 was ≤ 39.8 nM. In the case of `C[C@@]12Cc3c([nH]c4ccc(Cl)cc34)[C@@H](c3cccc(O)c3)N1C(=O)N(CCCN1CC=CC1)C2=O` (racemic) [Example 173, (3aSR,10RS)-6-Chloro-2-[3-(2,5-dihydro-pyrrol-1-yl)-propyl]-10-(3-hydroxy-phenyl)-3a-methyl-3a,4,9,10-tetrahydro-2,9,10a-triaza-cyclopenta[b]fluorene-1,3-dione], the EC50 is reported as ≤ 39.8 nM. `C=CCNCCN1C(=O)N2[C@H](c3cccc(O)c3)c3[nH]c4cc(F)c(OC)cc4c3C[C@@]2(C)C1=O` (racemic) [Example 254, (3aSR,10RS)-2-(2-Allylamino-ethyl)-7-fluoro-10-(3-hydroxy-phenyl)-6-methoxy-3a-methyl-3a,4,9,10-tetrahydro-2,9,10a-triaza-cyclopenta[b]fluorene-1,3-dione] gave an EC50 of 39.8 to 251 nM. `C[C@@]12Cc3c([nH]c4cc(F)c(Cl)cc34)[C@@H](c3cccc(O)c3)N1C(=O)N(CCCNCC1CC1)C2=O` (racemic) [Example 460, (3aSR,10RS)-6-Chloro-2-[3-(cyclopropylmethyl-amino)-propyl]-7-fluoro-10-(3-hydroxy-phenyl)-3a-methyl-3a,4,9,10-tetrahydro-2,9,10a-triaza-cyclopenta[b]fluorene-1,3-dione] showed an EC50 of 39.8 to 251 nM. In the case of `CCOc1ccc2[nH]c3c(c2c1)C[C@@]1(C)C(=O)N(CCNC2CCC2)C(=O)N1[C@@H]3c1cccc(O)c1` (racemic) [Example 155, (3aSR,10RS)-2-(2-Cyclobutylamino-ethyl)-6-ethoxy-10-(3-hydroxy-phenyl)-3a-methyl-3a,4,9,10-tetrahydro-2,9,10a-triaza-cyclopenta[b]fluorene-1,3-dione], the EC50 is reported as ≤ 39.8 nM. With `C[C@@]12Cc3c([nH]c4ccc(OC(F)F)cc34)[C@@H](c3cccc(O)c3)N1C(=O)N(CCNC1CCC1)C2=O` (racemic) [Example 272, (3aSR,10RS)-2-(2-Cyclobutylamino-ethyl)-6-(1,1-difluoro-methoxy)-10-(3-hydroxy-phenyl)-3a-methyl-3a,4,9,10-tetrahydro-2,9,10a-triaza-cyclopenta[b]fluorene-1,3-dione] the EC50 was ≤ 39.8 nM. `C[C@@]12Cc3c([nH]c4cc(F)c(Cl)cc34)[C@@H](c3cccc(O)c3)N1C(=O)N(CCN1CCOCC1)C2=O` (racemic) [Example 353, (3aSR,10RS)-6-Chloro-7-fluoro-10-(3-hydroxy-phenyl)-3a-methyl-2-(2-morpholin-4-yl-ethyl)-3a,4,9,10-tetrahydro-2,9,10a-triaza-cyclopenta[b]fluorene-1,3-dione] showed an EC50 of 39.8 to 251 nM. Work on `COc1cc2c3c([nH]c2cc1F)[C@@H](c1cccc(O)c1)N1C(=O)N(CCCN2CCCCC2)C(=O)[C@]1(C)C3` (racemic) [Example 324, (3aSR,10RS)-7-Fluoro-10-(3-hydroxy-phenyl)-6-methoxy-3a-methyl-2-(3-piperidin-1-yl-propyl)-3a,4,9,10-tetrahydro-2,9,10a-triaza-cyclopenta[b]fluorene-1,3-dione] yielded an EC50 of 39.8 to 251 nM. In the case of `CC(C)(C)NCCN1C(=O)N2[C@H](c3cccc(O)c3)c3[nH]c4ccc(OC(F)F)cc4c3C[C@@]2(C)C1=O` (racemic) [Example 273, (3aSR,10RS)-2-(2-tert-Butylamino-ethyl)-6-(1,1-difluoro-methoxy)-10-(3-hydroxy-phenyl)-3a-methyl-3a,4,9,10-tetrahydro-2,9,10a-triaza-cyclopenta[b]fluorene-1,3-dione], the EC50 is reported as ≤ 39.8 nM. With `C[C@@]12Cc3c([nH]c4ccc(Cl)cc34)[C@@H](c3cccc(O)c3)N1C(=O)N(CCCN1CCOCC1)C2=O` (racemic) [Example 171, (3aSR,10RS)-6-Chloro-10-(3-hydroxy-phenyl)-3a-methyl-2-(3-morpholin-4-yl-propyl)-3a,4,9,10-tetrahydro-2,9,10a-triaza-cyclopenta[b]fluorene-1,3-dione] the EC50 was ≤ 39.8 nM. For `CCN(CCO)CCCN1C(=O)N2[C@H](c3cccc(O)c3)c3[nH]c4ccc(OC)cc4c3C[C@@]2(C)C1=O` [Example 543, (3aS,10R)-2-{3-[Ethyl-(2-hydroxy-ethyl)-amino]-propyl}-10-(3-hydroxy-phenyl)-6-methoxy-3a-methyl-3a,4,9,10-tetrahydro-2,9,10a-triaza-cyclopenta[b]fluorene-1,3-dione], the EC50 was ≤ 39.8 nM. In the case of `CC(C)(C)NCCCN1C(=O)N2[C@H](c3cccc(O)c3)c3[nH]c4ccc(OC(F)F)cc4c3C[C@@]2(C)C1=O` (racemic) [Example 182, (3aSR,10RS)-2-(3-tert-Butylamino-propyl)-6-(1,1-difluoro-methoxy)-10-(3-hydroxy-phenyl)-3a-methyl-3a,4,9,10-tetrahydro-2,9,10a-triaza-cyclopenta[b]fluorene-1,3-dione], the EC50 is reported as ≤ 39.8 nM. With `C[C@@]12Cc3c([nH]c4ccc(OC(F)F)cc34)[C@@H](c3cccc(O)c3)N1C(=O)N(CCN)C2=O` (racemic) [Example 283, (3aSR,10RS)-2-(2-Amino-ethyl)-6-(1,1-difluoro-methoxy)-10-(3-hydroxy-phenyl)-3a-methyl-3a4,9,10-tetrahydro-2,9,10a-triaza-cyclopenta[b]fluorene-1,3-dione] the EC50 was 39.8 to 251 nM. Compound `COc1cc2c3c([nH]c2cc1F)[C@@H](c1cccc(O)c1)N1C(=O)N(CCCN2CCCCCC2)C(=O)[C@]1(C)C3` (racemic) [Example 329, (3aSR,10RS)-2-(3-Azepan-1-yl-propyl)-7-fluoro-10-(3-hydroxy-phenyl)-6-methoxy-3a-methyl-3a,4,9,10-tetrahydro-2,9,10a-triaza-cyclopenta[b]fluorene-1,3-dione] has an EC50 of 39.8 to 251 nM. `COc1cc2c3c([nH]c2cc1F)[C@@H](c1cccc(O)c1)N1C(=O)N(CCCN2CCCC2)C(=O)[C@]1(C)C3` (racemic) [Example 322, (3aSR,10RS)-7-Fluoro-10-(3-hydroxy-phenyl)-6-methoxy-3a-methyl-2-(3-pyrrolidin-1-yl-propyl)-3a,4,9,10-tetrahydro-2,9,10a-triaza-cyclopenta[b]fluorene-1,3-dione] showed an EC50 of 39.8 to 251 nM. For `CCN(CCO)CCN1C(=O)N2[C@H](c3cccc(O)c3)c3[nH]c4ccc(Br)cc4c3C[C@@]2(C)C1=O` (racemic) [Example 379, (3aSR,10RS)-6-Bromo-2-{2-[ethyl-(2-hydroxy-ethyl)-amino]-ethyl}-10-(3-hydroxy-phenyl)-3a-methyl-3a,4,9,10-tetrahydro-2,9,10a-triaza-cyclopenta[b]fluorene-1,3-dione], the EC50 was ≤ 39.8 nM. `C=CCNCCCN1C(=O)N2[C@H](c3cccc(O)c3)c3[nH]c4ccc(OC)cc4c3C[C@@]2(C)C1=O` [Example 533, (3aS,10R)-2-(3-Allylamino-propyl)-10-(3-hydroxy-phenyl)-6-methoxy-3a-methyl-3a,4,9,10-tetrahydro-2,9,10a-triaza-cyclopenta[b]fluorene-1,3-dione] was tested, and the EC50 was ≤ 39.8 nM. Work on `CCOc1ccc2[nH]c3c(c2c1)C[C@@]1(C)C(=O)N(CCNCCO)C(=O)N1[C@@H]3c1cccc(O)c1` (racemic) [Example 159, (3aSR,10RS)-6-Ethoxy-2-[2-(2-hydroxy-ethylamino)-ethyl]-10-(3-hydroxy-phenyl)-3a-methyl-3a,4,9,10-tetrahydro-2,9,10a-triaza-cyclopenta[b]fluorene-1,3-dione] yielded an EC50 of 39.8 to 251 nM. In the case of `C[C@@]12Cc3c([nH]c4cc(F)c(Cl)cc34)[C@@H](c3cccc(O)c3)N1C(=O)N(CCNC1CCC1)C2=O` (racemic) [Example 344, (3aSR,10RS)-6-Chloro-2-(2-cyclobutylamino-ethyl)-7-fluoro-10-(3-hydroxy-phenyl)-3a-methyl-3a,4,9,10-tetrahydro-2,9,10a-triaza-cyclopenta[b]fluorene-1,3-dione], the EC50 is reported as ≤ 39.8 nM. In the case of `CCOc1ccc2[nH]c3c(c2c1)C[C@@]1(C)C(=O)N(CCCN2CCCCCC2)C(=O)N1[C@@H]3c1cccc(O)c1` (racemic) [Example 210, (3aSR,10RS)-2-(3-Azepan-1-yl-propyl)-6-ethoxy-10-(3-hydroxy-phenyl)-3a-methyl-3a,4,9,10-tetrahydro-2,9,10a-triaza-cyclopenta[b]fluorene-1,3-dione], the EC50 is reported as 39.8 to 251 nM. For `C#CCN(C)CCCN1C(=O)N2[C@H](c3cccc(O)c3)c3[nH]c4ccc(Cl)cc4c3C[C@@]2(C)C1=O` (racemic) [Example 170, (3aSR,10RS)-6-Chloro-10-(3-hydroxy-phenyl)-3a-methyl-2-[3-(methyl-prop-2-ynyl-amino)-propyl]-3a,4,9,10-tetrahydro-2,9,10a-triaza-cyclopenta[b]fluorene-1,3-dione], the EC50 was 39.8 to 251 nM.
